{
  "source": "paper PMC6440584",
  "about": "(Eurosurveillance, 2019)",
  "key": {"[1]": {"target": "neuraminidase (NA) of influenza A(H3N2) virus A/YOKOHAMA/88/2019 (Influenza A virus, UniProt A0A193ACB1)", "type": "biochemical"}, "[2]": {"target": "neuraminidase (NA) of influenza A(H3N2) virus A/YOKOHAMA/87/2019 (Influenza A virus, UniProt A0A193ACB1)", "type": "biochemical"}},
  "data": [
    {"compound": "CCC(CC)[C@H](NC(C)=O)[C@@H]1[C@H](O)[C@@H](C(=O)O)C[C@H]1N=C(N)N", "note": "[Peramivir, peramivir]", "values": [
      {"measurement": "WHO criteria (fold change of IC50 compared with reference IC50)", "setting": "[1]", "value": "0.13 (NI) (key: NI: normal inhibition)"},
      {"measurement": "WHO criteria (fold change of IC50 compared with reference IC50)", "setting": "[2]", "value": "0.16 (NI) (key: NI: normal inhibition)"}
    ]}
  ]
}
